Assay: xn = mol fraction of the nth substance listed
Conditions: 101 kPa, Liquid; for viscosity: Capillary tube (Ostwald / Ubbelohde) method; for speed of sound: Frequency=2 MHz, Linear variable-path acoustic interferometer; for mass density: Pycnometric method

CCCCCC(C)O (stereo not given) [2-heptanol] + Cc1ccccc1
Conditions | mass density, 298.15 K [kg/m3] | mass density, 308.15 K [kg/m3] | speed of sound, 298.15 K [m/s] | speed of sound, 308.15 K [m/s] | viscosity, 298.15 K [mPa·s] | viscosity, 308.15 K [mPa·s]
x2 = 0 | 813.74 | 804.88 | 1314 | 1274 | 5.088 | 3.683
x2 = 0.0514 | 815.49 | 806.49 | 1309 | 1267 | 4.335 | 3.171
x2 = 0.1014 | 817.27 | 808.2 | 1303 | 1261 | 3.878 | 2.776
x2 = 0.1469 | 818.88 | 809.75 | 1298 | 1256 | 3.392 | 2.459
x2 = 0.2008 | 820.83 | 811.62 | 1293 | 1251 | 2.918 | 2.155
x2 = 0.2519 | 822.7 | 813.37 | 1288 | 1246 | 2.526 | 1.875
x2 = 0.3007 | 824.54 | 815.12 | 1283 | 1243 | 2.195 | 1.665
x2 = 0.348 | 826.33 | 816.85 | 1279 | 1238 | 1.9 | 1.485
x2 = 0.4006 | 828.45 | 818.86 | 1276 | 1235 | 1.622 | 1.332
x2 = 0.4526 | 830.61 | 820.97 | 1272 | 1232 | 1.396 | 1.199
x2 = 0.5002 | 832.62 | 822.92 | 1271 | 1230 | 1.24 | 1.078
x2 = 0.5501 | 834.9 | 825.13 | 1269 | 1229 | 1.064 | 0.992
x2 = 0.6011 | 837.36 | 827.5 | 1268 | 1228 | 0.931 | 0.904
x2 = 0.6574 | 840.16 | 830.22 | 1268 | 1229 | 0.853 | 0.818
x2 = 0.7011 | 842.5 | 832.53 | 1269 | 1230 | 0.778 | 0.756
x2 = 0.756 | 845.59 | 835.62 | 1273 | 1234 | 0.741 | 0.679
x2 = 0.8 | 848.22 | 838.25 | 1276 | 1238 | 0.691 | 0.641
x2 = 0.854 | 851.69 | 841.71 | 1283 | 1243 | 0.65 | 0.57
x2 = 0.9009 | 854.88 | 844.95 | 1289 | 1250 | 0.611 | 0.518
x2 = 0.9475 | 858.12 | 848.5 | 1296 | 1258 | 0.589 | 0.501

— the NIST ThermoML archive (doi:10.1016/j.fluid.2007.01.001)
